Experimental data as given in patent publication US20170233345A1, “SUBSTITUTED QUINOLINE-4-CARBOXAMIDES AND USE THEREOF” (BAYER PHARMA AKTIENGESELLSCHAFT, priority 2014, published 2017).

System: recombinant guanylate cyclase reporter cell line
Assay: Effect on a recombinant guanylate cyclase reporter cell line
Assay type: cell-based
Conditions: in some cases mean values from individual determinations, read-out: MEC (minimum effective concentration)
Method: B-2. Effect on a Recombinant Guanylate Cyclase Reporter Cell Line
The cellular activity of the compounds according to the invention is determined using a recombinant guanylate cyclase reporter cell line, as described in F. Wunder et al., Anal. Biochem. 339, 104-112 (2005).
Representative MEC values (MEC=minimum effective concentration) for the compounds of the invention are shown in the table below (in some cases as mean values from individual determinations): […]

| SMILES | minimal effective concentration [µM] |
| --- | --- |
| CC(C)(O)C(CCC(F)(F)C(F)(F)F)NC(=O)c1ccnc2c(OCc3c(F)cccc3F)cccc12 (single isomer, unassigned; ent-8) [Example 32, ent-8-[(2,6-Difluorobenzyl)oxy]-N-(6,6,7,7,7-pentafluoro-2-hydroxy-2-methylheptan-3-yl)quinoline-4-carboxamide (Enantiomer A)] | 2 |
| O=C(NCc1ccc(Cl)nc1)c1ccnc2c(OCc3c(F)cccc3F)cccc12 [Example 20] | 3 |
| Cc1cc(C(=O)NCC(C)(N)CCC(F)(F)F)c2cccc(OCc3c(F)cccc3F)c2n1 (single isomer, unassigned; enantiomer b) [Example 43, ent-N-(2-Amino-5,5,5-trifluoro-2-methylpentyl)-8-[(2,6-difluorobenzyl)oxy]-2-methylquinoline-4-carboxamide (Enantiomer B)] | 1 |
